Like-named read-outs stand apart in the source and are kept apart here.
Legend:
aldosterone synthase = target: T1, aldosterone synthase (Homo sapiens, UniProt P19099); experiment: cellular aldosterone production in NCI-H295R cells stimulated with Ang II (RIA/SPA); type: cell-based; details: human adrenocortical carcinoma NCI-H295R cells, 1 μM Ang II, 24 hr
T1 construct: host or cells: NCI-H295R
T1 sequence (P19099 25-503): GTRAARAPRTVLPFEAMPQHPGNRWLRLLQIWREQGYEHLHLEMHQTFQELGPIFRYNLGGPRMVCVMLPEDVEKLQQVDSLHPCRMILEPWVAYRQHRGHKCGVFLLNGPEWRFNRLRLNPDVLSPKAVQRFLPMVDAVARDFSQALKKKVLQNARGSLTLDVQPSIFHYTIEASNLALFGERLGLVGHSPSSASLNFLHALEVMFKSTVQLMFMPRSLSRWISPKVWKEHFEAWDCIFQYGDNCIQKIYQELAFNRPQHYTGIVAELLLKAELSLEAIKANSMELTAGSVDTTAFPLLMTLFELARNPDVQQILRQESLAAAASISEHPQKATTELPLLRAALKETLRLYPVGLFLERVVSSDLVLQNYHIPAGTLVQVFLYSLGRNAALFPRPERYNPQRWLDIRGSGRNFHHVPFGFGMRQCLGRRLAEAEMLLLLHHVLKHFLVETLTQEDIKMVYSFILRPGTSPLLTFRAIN
Text: (§1) Human adrenocortical carcinoma NCl-H295R cell line is obtained from American Type Culture Collection (Manassas, Va.). Insulin/transferrin/selenium (ITS)-A supplement (100×), DMEM/F-12, antibiotic/antimycotic (100×), and fetal calf serum (FCS) are purchased from Gibco (Grand Island, N.Y.). Anti-mouse PVT scintillation proximity assay (SPA) beads and NBS 96-well plates are obtained from Amersham (Piscataway, N.J.) and Corning (Acton, Mass.), respectively. Solid black 96-well flat bottom plates are purchased from Costar (Corning, N.Y.). Aldosterone and angiotensin (Ang II) are purchased from Sigma (St. Louis, Mo.). D-[1,2,6,7-^3H(N)]aldosterone was acquired from PerkinElmer (Boston, Mass.). Nu-serum was a product of BD Biosciences (Franklin Lakes, N.J.). The NADPH regenerating system, dibenzylfluorescein (DBF), and human aromatase Supersomes® are obtained from Gentest (Woburn, Mass.).
For in vitro measurement of aldosterone activity, human adrenocortical carcinoma NCI-H295R cells are seeded in NBS 96-well plates at a density of 25,000 cells/well in 100 μl of a growth medium containing DMEM/F12 supplemented with 10% FCS, 2.5% Nu-serum, 1 μg ITS/ml, and 1× antibiotic/antimycotic. The medium is changed after culturing for 3 days at 37° C. under an atmosphere of 5% CO2/95% air. On the following day, cells are rinsed with 100 μl of DMEM/F12 and incubated with 100 μl of treatment medium containing 1 μM Ang II and a compound at different concentrations in quadruplicate wells at 37° C. for 24 hr. At the end of incubation, 50 μl of medium is withdrawn from each well for measurement of aldosterone production by an RIA using mouse anti-aldosterone monoclonal antibodies.
Measurement of aldosterone activity can also be performed using a 96-well plate format. Each test sample is incubated with 0.02 μCi of D-[1,2,6,7-^3H(N)]aldosterone and 0.3 μg of anti-aldosterone antibody in phosphate-buffered saline (PBS) containing 0.1% Triton X-100, 0.1% bovine serum albumin, and 12% glycerol in a total volume of 200 μl at room temperature for 1 hr. Anti-mouse PVT SPA beads (50 μl) are then added to each well and incubated overnight at room temperature prior to counting in a Microbeta plate counter. The amount of aldosterone in each sample is calculated by comparing with a standard curve generated using known quantities of the hormone.
(§2) Full concentration-response curves of the test compound are performed at least 3 times. The IC50 values are derived using a non-linear least squares curve-fitting program from Microsoft XLfit.

human aromatase = target: T2, human aromatase (Homo sapiens, UniProt P11511); experiment: human aromatase assay (Supersomes, DBF substrate, fluorescence); type: biochemical; details: for inhibition at 10 µM: 10000 nM
T2 construct: purchased Gentest (Woburn, Mass.)
T2 sequence (P11511 1-503): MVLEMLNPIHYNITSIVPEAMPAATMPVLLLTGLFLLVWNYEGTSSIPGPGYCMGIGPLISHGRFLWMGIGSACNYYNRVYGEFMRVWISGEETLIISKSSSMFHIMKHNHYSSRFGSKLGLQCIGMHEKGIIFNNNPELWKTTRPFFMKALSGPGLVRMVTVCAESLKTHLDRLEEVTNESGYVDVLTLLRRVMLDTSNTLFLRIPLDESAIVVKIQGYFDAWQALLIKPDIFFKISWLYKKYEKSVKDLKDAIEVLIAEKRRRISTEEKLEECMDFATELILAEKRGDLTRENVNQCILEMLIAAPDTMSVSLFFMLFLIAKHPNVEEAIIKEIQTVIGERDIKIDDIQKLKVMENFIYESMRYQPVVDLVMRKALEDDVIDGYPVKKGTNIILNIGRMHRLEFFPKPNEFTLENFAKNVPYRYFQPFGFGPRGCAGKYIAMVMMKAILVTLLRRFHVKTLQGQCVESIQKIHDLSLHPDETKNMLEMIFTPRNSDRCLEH
Text: as §1
To measure aromatase activity, the human aromatase assay is performed in 96-well flat bottom plates according to a published protocol (Stresser et al, 2000) with minor modifications. Briefly, 10 μl of an NADPH regenerating system containing 2.6 mM NADP^+, 6.6 mM glucose 6-phosphate, 6.6 mM MgCl2, and 0.8 U/ml glucose-6-phosphate dehydrogenase in 50 mM potassium phosphate, pH 7.4, is pre-incubated with the test compound at a desired concentration at 30° C. for 10 min in a total volume of 100 μl. Afterwards, 4 pmol of human aromatase, 20 μg of control microsomal protein, and 4 μM DBF in 100 μl of 50 mM potassium phosphate, pH 7.4, is added to each well and incubated at 30° C. for 90 min. The reaction is terminated by the addition of 75 μl of 2 N NaOH to each well. After 2 hr, the product, fluorescein, is measured by a fluorimeter using excitation and emission wavelengths of 485 and 538 nm, respectively.
as §2

Structure (SMILES) | IC50 (aldosterone synthase) | inhibition at 10 µM (human aromatase) | % inhibition of aromatase @ 10000 nM (human aromatase) | % inhibition of aromatase @ 10000 nM (human aromatase; 10 µM)
CC1CCCC(c2ccc(C#N)cc2-c2ccc(F)cc2)n2cncc21 (single isomer, unassigned) [4′-Fluoro-6-(9-methyl-6,7,8,9-tetrahydro-5H-imidazo[1,5-a]az] [4′-Fluoro-6-(9-methyl-6,7,8,9-tetrahydro-5H-imidazo[1,5-a]azepin-5-yl)biphenyl-3-carbonitrile] |  |  |  | 98%
COc1ccc(CN(C)C(=O)C2(c3ccc(C#N)cc3Cl)CCc3cncn32)cc1 (single isomer, unassigned) [5-(2-Chloro-4-cyanophenyl)-6,7-dihydro-5H-pyrrolo[1,2-c]imidazole-5-carboxylic acid (4-methoxybenzyl)methylamide] |  | 98% |  | 
COc1ccc(CN(C)C(=O)C2(c3ccc(C#N)cc3Cl)CCc3cncn32)cc1 (single isomer, unassigned) [5-(2-chloro-4-cyanophenyl)-6,7-dihydro-5H-pyrrolo[1,2-c]imid] [5-(2-Chloro-4-cyanophenyl)-6,7-dihydro-5H-pyrrolo[1,2-c]imidazole-5-carboxylic acid (4-methoxybenzyl)methylamide] |  |  |  | 97%
N#Cc1ccc(C2CCCCc3cncn32)cc1Br (centres unmarked) [2-Bromo-4-(6,7,8,9-tetrahydro-5H-imidazo[1,5-a]azepin-5-yl)benzonitrile] | 23 nM | 100% |  | 
N#Cc1ccc(C2CCCCc3cncn32)c(Cl)c1 (centres unmarked) [3-Chloro-4-(6,7,8,9-tetrahydro-5H-imidazo[1,5-a]azepin-5-yl)benzonitrile] | 48 nM | 100% |  | 
N#Cc1ccc(C2(C(=O)N3CCOCC3)CCc3cncn32)c(Cl)c1 (centres unmarked) [3-Chloro-4-[5-(morpholino-4-carbonyl)-6,7-dihydro-5H-pyrrolo[1,2-c]imidazol-5-yl]benzonitrile] | 357 nM |  |  | 
CCC1(c2ccc(C#N)cc2Cl)CCCCc2cncn21 (centres unmarked) [3-Chloro-(5-ethyl-6,7,8,9-tetrahydro-5H-imidazo[1,5-a]azepin-5-yl)benzonitrile] | 217 nM | 91% |  | 
C=C1CC(c2ccc(C#N)cc2F)n2cncc21 (centres unmarked) [3-Fluoro-4-(7-methylene-6,7-dihydro-5H-pyrrolo[1,2-c]imidazol-5-yl)benzonitrile] | 4 nM | 95% |  | 
N#Cc1ccc(C2CCCCc3cncn32)c(-c2cccnc2)c1 (centres unmarked) [3-Pyridin-3-yl-4-(6,7,8,9-tetrahydro-5H-imidazo[1,5-a]azepin-5-yl)benzonitrile] | 35 nM | 97% |  | 

Second part, the compound after the results:

IC50 (aldosterone synthase) | inhibition at 10 µM (human aromatase) | % inhibition of aromatase @ 10000 nM (human aromatase) | % inhibition of aromatase @ 10000 nM (human aromatase; 10 µM) | Structure (SMILES)
7 nM | 100% |  |  | N#Cc1ccc([C@@H]2C[C@H](Cc3ccc(F)cc3)Cc3cncn32)c(F)c1 (relative stereo) [cis- and trans-3-Fluoro-4-[7-(4-fluorobenzyl)-5,6,7,8-tetrahydroimidazo[1,5-a]pyridin-5-yl]benzonitrile]
83 nM | 100% |  |  | COc1cc(C#N)ccc1[C@@H]1C[C@@H](Cc2ccc(F)cc2)Cc2cncn21 (relative stereo) [trans-3-Methoxy-4-[7-(4-fluorobenzyl)-5,6,7,8-tetrahydroimidazo[1,5-a]pyridin-5-yl]benzonitrile]
 | 96% | 96% |  | Cc1cc(C#N)ccc1C1CCc2cncn21 (single isomer, unassigned) [4-(6,7-Dihydro-5H-pyrrolo[1,2-c]imidazol-5-yl)-3-methylbenzonitrile]
 | 81% |  |  | CC1CCCC(c2ccc(C#N)cc2-c2ccc(F)cc2)n2cncc21 (single isomer, unassigned) [4′-Fluoro-6-(9-methyl-6,7,8,9-tetrahydro-5H-imidazo[1,5-a]azepin-5-yl)biphenyl-3-carbonitrile]
 |  |  | 98% | N#Cc1ccc(C2(C(=O)OCc3ccc(F)cc3)CCc3cncn32)c(Cl)c1 (single isomer, unassigned) [5-(2-Chloro-4-cyanophenyl)-6,7-dihydro-5H-pyrrolo[1,2-c]imid] [5-(2-Chloro-4-cyanophenyl)-6,7-dihydro-5H-pyrrolo[1,2-c]imidazole-5-carboxylic acid 4-fluorobenzyl ester]
 | 91% |  |  | N#Cc1ccc(C2(C(=O)OCc3ccc(F)cc3)CCc3cncn32)c(Cl)c1 (single isomer, unassigned) [5-(2-Chloro-4-cyanophenyl)-6,7-dihydro-5H-pyrrolo[1,2-c]imidazole-5-carboxylic acid 4-fluorobenzyl ester]
40 nM | 59% |  |  | Cc1noc(C)c1-c1cc(C#N)ccc1C1CCCCc2cncn21 (centres unmarked) [3-(3,5-Dimethylisoxazol-4-yl)-4-(6,7,8,9-tetrahydro-5H-imidazo[1,5-a]azepin-5-yl)benzonitrile]
90 nM | 100% |  |  | N#Cc1ccc(C2CCc3cncn32)c(N)c1 (centres unmarked) [3-Amino-4-(6,7-dihydro-5H-pyrrolo[1,2-c]imidazol-5-yl)benzonitrile]
135 nM | 98% |  |  | N#Cc1ccc(C2(C(=O)N3CCCCC3)CCc3cncn32)c(Cl)c1 (centres unmarked) [3-Chloro-4-[5-(piperidine-1-carbonyl)-6,7-dihydro-5H-pyrrolo[1,2-c]imidazol-5-yl]benzonitrile]
270 nM | 100% |  |  | COc1cc(C#N)ccc1C1CCCc2cncn21 (centres unmarked) [3-Methoxy-4-(5,6,7,8-tetrahydro-imidazo[1,5-a]pyridin-5-yl)benzonitrile]
11 nM | 100% |  |  | C=C1CC2(CCCCc3cncn32)c2ccc(C#N)cc21 (centres unmarked) [3′-Methylene-2′,3′,6,7,8,9-hexahydrospiro[imidazo[1,5-a]azepine-5,1′-indene]-5′-carbonitrile]
244 nM |  |  |  | COC(=O)C1(c2ccc(C#N)cc2C(F)(F)F)CCc2cncn21 (centres unmarked) [5-(4-Cyano-2-trifluoromethylphenyl)-6,7-dihydro-5H-pyrrolo[1,2-c]imidazole-5-carboxylic acid methyl ester]
270 nM |  |  |  | CC1(c2ccc(C#N)cc2-c2ccccc2)CCCc2cncn21 (centres unmarked) [6-(5-Methyl-5,6,7,8-tetrahydroimidazo[1,5-a]pyridin-5-yl)biphenyl-3-carbonitrile]
